Values after ≈ are worked out from the molar mass of the structure shown.
Tests used:
Test in all cases: In vitro antibacterial evaluation: minimum inhibitory concentration (MIC), broth dilution method
Format in all cases: cell-based
[1] = test system: Escherichia coli; settings: 18 hours at 35° C.
Summary of the method: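 Inoculum: 5×10^5 CFU/mL. Range: 64-0.06 μg/mL. Medium: Muller-Hinton II […]; NCCLS M7-A2 broth dilution. Endpoint: lowest concentration inhibiting growth. Strains include methicillin-, penicillin- and/or vancomycin-resistant clinical isolates.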

[2] = test system: Streptococcus sp.; settings: 18 hours at 35° C.
Summary of the method: (§1)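 An MIC is reported for each organism as the least concentration giving inhibition, using broth dilution over 64-0.06 μg/mL with a 5×10^5 CFU/mL inoculum.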

[3] = test system: Staphylococcus sp.; settings: for MIC Staphylococcus aureus (ATCC 29213): strain ATCC 29213; for MIC Staphylococcus aureus (GC 1131): strain GC 1131; for MIC Staphylococcus aureus (GC 3051): strain GC 3051; for MIC Staphylococcus aureus (GC 3053): strain GC 3053; for MIC Staphylococcus aureus (GC 4541): strain GC 4541; for MIC Staphylococcus aureus (GC 4542): strain GC 4542; for MIC Staphylococcus aureus-SMITH (GC 4543): strain GC 4543; for MIC Staphylococcus aureus (GC 4544): strain GC 4544; for MIC Staphylococcus aureus (GC 4545): strain GC 4545; for MIC Staphylococcus haemolyticus (GC 4546): strain GC 4546; for MIC Coagulase Negative Staphylococcus (GC 4547): strain GC 4547; for MIC Coagulase Negative Staphylococcus (GC 4548): strain GC 4548; for MIC Coagulase Negative Staphylococcus (GC 4549): strain GC 4549; for MIC Coagulase Negative Staphylococcus (GC 4551): strain GC 4551; for MIC Coagulase Negative Staphylococcus (GC 6257): strain GC 6257
Summary of the method: as §1

[4] = test system: Enterococcus sp.; settings: 18 hours at 35° C.
Summary of the method: as §1

[5] = Streptococcus agalactiae (GC 4564)
[6] = Streptococcus pneumoniae (ATCC 6301)
[7] = Streptococcus pneumoniae (GC 1894)
[8] = Streptococcus pneumoniae (GC 4565)
[9] = Streptococcus pyogenes (GC 4563)
[10] = broth dilution, inoculum 5×10^5 CFU/mL
[11] = Enterococcus faecalis (ATCC 29212)
[12] = Enterococcus faecalis (GC 2242)
[13] = Enterococcus faecalis (GC 2691)
[14] = Enterococcus faecalis (GC 3059)
[15] = Enterococcus faecalis (GC 4552)
[16] = Enterococcus faecalis (GC 4553)
[17] = Enterococcus faecalis (GC 4554)
[18] = Enterococcus faecalis (GC 6189)

## CC(c1ccccc1)C1NC(=O)CNC(=O)C(CO)NC(=O)C(C(O)C2CNC(=N)N2C2OC(CO)C(O)C(O)C2O)NC(=O)C(C(O)C2CNC(=N)N2)NC(=O)C(Cc2ccc(OC3OC(CO)C(OC4OC5COC(c6ccc(C(=O)c7ccc(I)cc7)cc6)OC5C(O)C4O)C(O)C3O)cc2)NC1=O (centres unmarked) [Example 186]
[1]
  MIC Escherichia coli (ATCC 25922): 64 µg/mL (≈ 39.7 µM)
  MIC Escherichia coli (GC 4559): 64 µg/mL (≈ 39.7 µM)
  MIC Escherichia coli (GC 4560): 4 µg/mL (≈ 2.48 µM)
[2]; [5]
  MIC Streptococcus agalactiae (GC 4564): <0.06 µg/mL
[2]; [6]
  MIC Streptococcus pneumoniae (ATCC 6301): <0.06 µg/mL
[2]; [7]
  MIC Streptococcus pneumoniae (GC 1894): <0.06 µg/mL
[2]; [8]
  MIC Streptococcus pneumoniae (GC 4565): <0.06 µg/mL
[2]; [9]
  MIC Streptococcus pyogenes (GC 4563): 0.25 µg/mL (≈ 0.155 µM)
[2]; [10]
  MIC Streptococcus agalactiae (GC 4564): <0.06 µg/mL
  MIC Streptococcus pneumoniae (ATCC 6301): <0.06 µg/mL
  MIC Streptococcus pneumoniae (GC 1894): <0.06 µg/mL
  MIC Streptococcus pneumoniae (GC 4565): <0.06 µg/mL
  MIC Streptococcus pyogenes (GC 4563): 0.25 µg/mL (≈ 0.155 µM)
[3]
  MIC Staphylococcus aureus (ATCC 29213): 2 µg/mL (≈ 1.24 µM)
  MIC Staphylococcus aureus (GC 1131): 2 µg/mL (≈ 1.24 µM)
  MIC Staphylococcus aureus (GC 3051): 2 µg/mL (≈ 1.24 µM)
  MIC Staphylococcus aureus (GC 3053): 2 µg/mL (≈ 1.24 µM)
  MIC Staphylococcus aureus (GC 4541): 2 µg/mL (≈ 1.24 µM)
  MIC Staphylococcus aureus (GC 4542): 1 µg/mL (≈ 0.62 µM)
  MIC Staphylococcus aureus-SMITH (GC 4543): 2 µg/mL (≈ 1.24 µM)
  MIC Staphylococcus aureus (GC 4544): 2 µg/mL (≈ 1.24 µM)
  MIC Staphylococcus aureus (GC 4545): 2 µg/mL (≈ 1.24 µM)
  MIC Staphylococcus haemolyticus (GC 4546): 1 µg/mL (≈ 0.62 µM)
  MIC Coagulase Negative Staphylococcus (GC 4547): 2 µg/mL (≈ 1.24 µM)
  MIC Coagulase Negative Staphylococcus (GC 4548): 1 µg/mL (≈ 0.62 µM)
  MIC Coagulase Negative Staphylococcus (GC 4549): 1 µg/mL (≈ 0.62 µM)
  MIC Coagulase Negative Staphylococcus (GC 4551): 2 µg/mL (≈ 1.24 µM)
  MIC Coagulase Negative Staphylococcus (GC 6257): 0.5 µg/mL (≈ 0.31 µM)
[4]; Enterococcus avium (GC 4558)
  MIC Enterococcus avium (GC 4558): 2 µg/mL (≈ 1.24 µM)
[4]; [11]
  MIC Enterococcus faecalis (ATCC 29212): 2 µg/mL (≈ 1.24 µM)
[4]; [12]
  MIC Enterococcus faecalis (GC 2242): 2 µg/mL (≈ 1.24 µM)
[4]; [13]
  MIC Enterococcus faecalis (GC 2691): 2 µg/mL (≈ 1.24 µM)
[4]; [14]
  MIC Enterococcus faecalis (GC 3059): 2 µg/mL (≈ 1.24 µM)
[4]; [15]
  MIC Enterococcus faecalis (GC 4552): 2 µg/mL (≈ 1.24 µM)
[4]; [16]
  MIC Enterococcus faecalis (GC 4553): 2 µg/mL (≈ 1.24 µM)
[4]; [17]
  MIC Enterococcus faecalis (GC 4554): 2 µg/mL (≈ 1.24 µM)
[4]; [18]
  MIC Enterococcus faecalis (GC 6189): 1 µg/mL (≈ 0.62 µM)
[4]; Enterococcus faecium (GC 2243)
  MIC Enterococcus faecium (GC 2243): 2 µg/mL (≈ 1.24 µM)
[4]; Enterococcus faecium (GC 4556)
  MIC Enterococcus faecium (GC 4556): 2 µg/mL (≈ 1.24 µM)
[4]; Enterococcus faecium (GC 4557)
  MIC Enterococcus faecium (GC 4557): 2 µg/mL (≈ 1.24 µM)
[4]; [10]
  MIC Enterococcus avium (GC 4558): 2 µg/mL (≈ 1.24 µM)
  MIC Enterococcus faecalis (ATCC 29212): 2 µg/mL (≈ 1.24 µM)
  MIC Enterococcus faecalis (GC 2242): 2 µg/mL (≈ 1.24 µM)
  MIC Enterococcus faecalis (GC 2691): 2 µg/mL (≈ 1.24 µM)
  MIC Enterococcus faecalis (GC 3059): 2 µg/mL (≈ 1.24 µM)
  MIC Enterococcus faecalis (GC 4552): 2 µg/mL (≈ 1.24 µM)
  MIC Enterococcus faecalis (GC 4553): 2 µg/mL (≈ 1.24 µM)
  MIC Enterococcus faecalis (GC 4554): 2 µg/mL (≈ 1.24 µM)
  MIC Enterococcus faecalis (GC 6189): 1 µg/mL (≈ 0.62 µM)
  MIC Enterococcus faecium (GC 2243): 2 µg/mL (≈ 1.24 µM)
  MIC Enterococcus faecium (GC 4556): 2 µg/mL (≈ 1.24 µM)
  MIC Enterococcus faecium (GC 4557): 2 µg/mL (≈ 1.24 µM)

## COc1ccc2cc(C3OCC4OC(OC5C(CO)OC(Oc6ccc(CC7NC(=O)C(C(C)c8ccccc8)NC(=O)CNC(=O)C(CO)NC(=O)C(CC8CNC(=N)N8C8OC(CO)C(O)C(O)C8O)NC(=O)C(CC8CNC(=N)N8)NC7=O)cc6)C(O)C5O)C(O)C(O)C4O3)ccc2c1 (centres unmarked) [Example 190]
[1]
  MIC Escherichia coli (ATCC 25922): >64 µg/mL
  MIC Escherichia coli (GC 4559): >64 µg/mL
  MIC Escherichia coli (GC 4560): 16 µg/mL (≈ 11.2 µM)
[2]; [5]
  MIC Streptococcus agalactiae (GC 4564): 16 µg/mL (≈ 11.2 µM)
[2]; [6]
  MIC Streptococcus pneumoniae (ATCC 6301): 8 µg/mL (≈ 5.59 µM)
[2]; [7]
  MIC Streptococcus pneumoniae (GC 1894): 4 µg/mL (≈ 2.79 µM)
[2]; [8]
  MIC Streptococcus pneumoniae (GC 4565): 8 µg/mL (≈ 5.59 µM)
[2]; [9]
  MIC Streptococcus pyogenes (GC 4563): 16 µg/mL (≈ 11.2 µM)
[2]; [10]
  MIC Streptococcus agalactiae (GC 4564): 16 µg/mL (≈ 11.2 µM)
  MIC Streptococcus pneumoniae (ATCC 6301): 8 µg/mL (≈ 5.59 µM)
  MIC Streptococcus pneumoniae (GC 1894): 4 µg/mL (≈ 2.79 µM)
  MIC Streptococcus pneumoniae (GC 4565): 8 µg/mL (≈ 5.59 µM)
  MIC Streptococcus pyogenes (GC 4563): 16 µg/mL (≈ 11.2 µM)
[3]
  MIC Staphylococcus aureus (ATCC 29213): 16 µg/mL (≈ 11.2 µM)
  MIC Staphylococcus aureus (GC 1131): 16 µg/mL (≈ 11.2 µM)
  MIC Staphylococcus aureus (GC 3051): 16 µg/mL (≈ 11.2 µM)
  MIC Staphylococcus aureus (GC 3053): 16 µg/mL (≈ 11.2 µM)
  MIC Staphylococcus aureus (GC 4541): 8 µg/mL (≈ 5.59 µM)
  MIC Staphylococcus aureus (GC 4542): 4 µg/mL (≈ 2.79 µM)
  MIC Staphylococcus aureus-SMITH (GC 4543): 4 µg/mL (≈ 2.79 µM)
  MIC Staphylococcus aureus (GC 4544): 16 µg/mL (≈ 11.2 µM)
  MIC Staphylococcus aureus (GC 4545): 16 µg/mL (≈ 11.2 µM)
  MIC Staphylococcus haemolyticus (GC 4546): 8 µg/mL (≈ 5.59 µM)
  MIC Coagulase Negative Staphylococcus (GC 4547): 8 µg/mL (≈ 5.59 µM)
  MIC Coagulase Negative Staphylococcus (GC 4548): 8 µg/mL (≈ 5.59 µM)
  MIC Coagulase Negative Staphylococcus (GC 4549): 8 µg/mL (≈ 5.59 µM)
  MIC Coagulase Negative Staphylococcus (GC 4551): 16 µg/mL (≈ 11.2 µM)
  MIC Coagulase Negative Staphylococcus (GC 6257): 8 µg/mL (≈ 5.59 µM)
[4]; Enterococcus avium (GC 4558)
  MIC Enterococcus avium (GC 4558): 16 µg/mL (≈ 11.2 µM)
[4]; [11]
  MIC Enterococcus faecalis (ATCC 29212): 32 µg/mL (≈ 22.4 µM)
[4]; [12]
  MIC Enterococcus faecalis (GC 2242): 32 µg/mL (≈ 22.4 µM)
[4]; [13]
  MIC Enterococcus faecalis (GC 2691): 32 µg/mL (≈ 22.4 µM)
[4]; [14]
  MIC Enterococcus faecalis (GC 3059): 32 µg/mL (≈ 22.4 µM)
[4]; [15]
  MIC Enterococcus faecalis (GC 4552): 32 µg/mL (≈ 22.4 µM)
[4]; [16]
  MIC Enterococcus faecalis (GC 4553): 32 µg/mL (≈ 22.4 µM)
[4]; [17]
  MIC Enterococcus faecalis (GC 4554): 32 µg/mL (≈ 22.4 µM)
[4]; [18]
  MIC Enterococcus faecalis (GC 6189): 32 µg/mL (≈ 22.4 µM)
[4]; Enterococcus faecium (GC 2243)
  MIC Enterococcus faecium (GC 2243): 32 µg/mL (≈ 22.4 µM)
[4]; Enterococcus faecium (GC 4556)
  MIC Enterococcus faecium (GC 4556): 32 µg/mL (≈ 22.4 µM)
[4]; Enterococcus faecium (GC 4557)
  MIC Enterococcus faecium (GC 4557): 8 µg/mL (≈ 5.59 µM)
[4]; [10]
  MIC Enterococcus avium (GC 4558): 16 µg/mL (≈ 11.2 µM)
  MIC Enterococcus faecalis (ATCC 29212): 32 µg/mL (≈ 22.4 µM)
  MIC Enterococcus faecalis (GC 2242): 32 µg/mL (≈ 22.4 µM)
  MIC Enterococcus faecalis (GC 2691): 32 µg/mL (≈ 22.4 µM)
  MIC Enterococcus faecalis (GC 3059): 32 µg/mL (≈ 22.4 µM)
  MIC Enterococcus faecalis (GC 4552): 32 µg/mL (≈ 22.4 µM)
  MIC Enterococcus faecalis (GC 4553): 32 µg/mL (≈ 22.4 µM)
  MIC Enterococcus faecalis (GC 4554): 32 µg/mL (≈ 22.4 µM)
  MIC Enterococcus faecalis (GC 6189): 32 µg/mL (≈ 22.4 µM)
  MIC Enterococcus faecium (GC 2243): 32 µg/mL (≈ 22.4 µM)
  MIC Enterococcus faecium (GC 4556): 32 µg/mL (≈ 22.4 µM)
  MIC Enterococcus faecium (GC 4557): 8 µg/mL (≈ 5.59 µM)

From US8247211B2, “Glycopeptide antibiotics” (American Cyanamid Company, priority 2001, dated 2012)
